Biological target: T1, hCB1 (Homo sapiens, UniProt P21554)
T1 construct: made in house; host or cells: Sf9 insect cells (baculovirus), P2 membranes
Experiment: Agonist-induced GTP binding (GTPγ35S) assay at CB1, Example 8
Type: biochemical
Settings: IC50 at CB1, determined as described in Example 8; read-out: IC50
Procedure, shortened: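 Antagonism read as inhibition of 1 nM CP55,940-stimulated GTPγ35S ([…]) binding, compounds at 10^−10 to 10^−5 M. Baculovirus-infected Sf9 membranes bearing hCB1 plus G-protein subunits, 60 min room-temperature incubation with 5 μM GDP. Filtration and scintillation counting; data as percent over basal.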

T1 sequence (P21554 whole entry): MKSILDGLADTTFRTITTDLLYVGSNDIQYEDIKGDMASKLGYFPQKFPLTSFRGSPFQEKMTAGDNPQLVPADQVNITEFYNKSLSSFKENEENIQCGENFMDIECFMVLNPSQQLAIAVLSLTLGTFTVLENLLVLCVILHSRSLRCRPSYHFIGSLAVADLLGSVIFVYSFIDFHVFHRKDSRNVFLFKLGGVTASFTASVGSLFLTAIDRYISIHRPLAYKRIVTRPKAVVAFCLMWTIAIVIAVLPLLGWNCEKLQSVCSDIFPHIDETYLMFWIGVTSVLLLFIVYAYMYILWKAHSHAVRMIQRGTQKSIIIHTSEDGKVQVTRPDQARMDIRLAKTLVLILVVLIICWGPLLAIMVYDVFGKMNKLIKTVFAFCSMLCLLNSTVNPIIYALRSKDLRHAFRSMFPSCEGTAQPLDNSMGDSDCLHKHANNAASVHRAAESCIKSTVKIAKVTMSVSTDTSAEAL

SMILES	IC50 [nM]
Cc1cccc(NC(=O)Nc2cccc(OC(F)F)c2)c1 [Compound 369, 1-[3-(difluoromethoxy)phenyl]-3-(3-methylphenyl)urea]	< 2000
Cc1ccc(NC(=O)Nc2cccc(OC(F)F)c2)cc1 [Compound 370, 1-[3-(difluoromethoxy)phenyl]-3-(4-methylphenyl)urea]	< 2000
O=C(Nc1cccc(F)c1)Nc1cccc(OC(F)F)c1 [Compound 371, 1-[3-(difluoromethoxy)phenyl]-3-(3-fluorophenyl)urea]	< 2000
O=C(Nc1ccc(F)cc1)Nc1cccc(OC(F)F)c1 [Compound 372, 1-[3-(difluoromethoxy)phenyl]-3-(4-fluorophenyl)urea]	< 2000
O=C(Nc1ccc(F)cc1)Nc1ccc(OC(F)F)cc1 [Compound 373, 1-[4-(difluoromethoxy)phenyl]-3-(4-fluorophenyl)urea]	< 2000
CCOc1cccc(NC(=O)Nc2ccccc2)c1 [Compound 374, 1-(3-ethoxyphenyl)-3-phenylurea]	< 2000
CC(C)Oc1ccc(NC(=O)Nc2ccccc2)cc1 [Compound 375, 1-(4-isopropoxyphenyl)-3-phenylurea]	< 2000
O=C(Nc1ccccc1)Nc1cccc(OC(F)F)c1 [Compound 376, 1-[3-(difluoromethoxy)phenyl]-3-phenylurea]	< 2000
Cc1ccccc1NC(=O)Nc1cccc(OC(F)F)c1 [Compound 377, 1-[3-(difluoromethoxy)phenyl]-3-(2-methylphenyl)urea]	< 2000
CCc1ccccc1NC(=O)Nc1cccc(OC(F)F)c1 [Compound 378, 1-[3-(difluoromethoxy)phenyl]-3-(2-ethylphenyl)urea]	< 2000
CCc1ccc(NC(=O)Nc2ccc(OC)cc2)cc1 [Compound 382, 1-(4-ethylphenyl)-3-(4-methoxyphenyl)urea]	< 2000
COc1ccc(NC(=O)Nc2ccc(Cl)cc2)cc1 [Compound 383, 1-(4-chlorophenyl)-3-(4-methoxyphenyl)urea]	< 2000
CCOc1cccc(NC(=O)Nc2cccc(CC)c2)c1 [Compound 384, 1-(3-ethoxyphenyl)-3-(3-ethylphenyl)urea]	< 2000
CCOc1cccc(NC(=O)Nc2ccc(CC)cc2)c1 [Compound 385, 1-(3-ethoxyphenyl)-3-(4-ethylphenyl)urea]	< 2000
CCOc1cccc(NC(=O)Nc2ccc(Cl)cc2)c1 [Compound 386, 1-(4-chlorophenyl)-3-(3-ethoxyphenyl)urea]	< 2000
CCOc1ccc(NC(=O)Nc2cccc(CC)c2)cc1 [Compound 387, 1-(4-ethoxyphenyl)-3-(3-ethylphenyl)urea]	< 2000
CCOc1ccc(NC(=O)Nc2ccc(CC)cc2)cc1 [Compound 388, 1-(4-ethoxyphenyl)-3-(4-ethylphenyl)urea]	< 2000
CCOc1ccc(NC(=O)Nc2cccc(Cl)c2)cc1 [Compound 389, 1-(3-chlorophenyl)-3-(4-ethoxyphenyl)urea]	< 2000
CCOc1ccc(NC(=O)Nc2ccc(Cl)cc2)cc1 [Compound 390, 1-(4-chlorophenyl)-3-(4-ethoxyphenyl)urea]	< 2000
CCc1ccc(NC(=O)Nc2cccc(COC)c2)cc1 [Compound 391, 1-(4-ethylphenyl)-3-[3-(methoxymethyl)phenyl]urea]	< 2000

SMILES	IC50 [nM]
CCc1cccc(NC(=O)Nc2ccc(COC)cc2)c1 [Compound 392, 1-(3-ethylphenyl)-3-[4-(methoxymethyl)phenyl]urea]	< 2000
CCc1ccc(NC(=O)Nc2ccc(COC)cc2)cc1 [Compound 393, 1-(4-ethylphenyl)-3-[4-(methoxymethyl)phenyl]urea]	< 2000
COCc1ccc(NC(=O)Nc2cccc(Cl)c2)cc1 [Compound 394, 1-(3-chlorophenyl)-3-[4-(methoxymethyl)phenyl]urea]	< 2000
COCc1ccc(NC(=O)Nc2ccc(Cl)cc2)cc1 [Compound 395, 1-(4-chlorophenyl)-3-[4-(methoxymethyl)phenyl]urea]	< 2000
CCCOc1ccc(NC(=O)Nc2cccc(CC)c2)cc1 [Compound 396, 1-(3-ethylphenyl)-3-(4-propoxyphenyl)urea]	< 2000
CCCOc1ccc(NC(=O)Nc2cccc(Cl)c2)cc1 [Compound 397, 1-(3-chlorophenyl)-3-(4-propoxyphenyl)urea]	< 2000
CCCOc1ccc(NC(=O)Nc2ccc(Cl)cc2)cc1 [Compound 398, 1-(4-chlorophenyl)-3-(4-propoxyphenyl)urea]	< 2000
CCc1cccc(NC(=O)Nc2cccc(OC(C)C)c2)c1 [Compound 399, 1-(3-ethylphenyl)-3-(3-isopropoxyphenyl)urea]	< 2000
CC(C)Oc1cccc(NC(=O)Nc2cccc(Cl)c2)c1 [Compound 400, 1-(3-chlorophenyl)-3-(3-isopropoxyphenyl)urea]	< 2000
CC(C)Oc1cccc(NC(=O)Nc2ccc(Cl)cc2)c1 [Compound 401, 1-(4-chlorophenyl)-3-(3-isopropoxyphenyl)urea]	< 2000
CCc1cccc(NC(=O)Nc2ccc(OC(C)C)cc2)c1 [Compound 402, 1-(3-ethylphenyl)-3-(4-isopropoxyphenyl)urea]	< 2000
CCc1ccc(NC(=O)Nc2ccc(OC(C)C)cc2)cc1 [Compound 403, 1-(4-ethylphenyl)-3-(4-isopropoxyphenyl)urea]	< 2000
CC(C)Oc1ccc(NC(=O)Nc2cccc(Cl)c2)cc1 [Compound 404, 1-(3-chlorophenyl)-3-(4-isopropoxyphenyl)urea]	< 2000
CC(C)Oc1ccc(NC(=O)Nc2ccc(Cl)cc2)cc1 [Compound 405, 1-(4-chlorophenyl)-3-(4-isopropoxyphenyl)urea]	< 2000
CCc1cccc(NC(=O)Nc2cccc(OC(F)F)c2)c1 [Compound 406, 1-[3-(difluoromethoxy)phenyl]-3-(3-ethylphenyl)urea]	< 2000
CCc1ccc(NC(=O)Nc2cccc(OC(F)F)c2)cc1 [Compound 407, 1-[3-(difluoromethoxy)phenyl]-3-(4-ethylphenyl)urea]	< 2000
COc1cccc(NC(=O)Nc2ccc(C(C)=O)cc2)c1 [Compound 408, 1-(4-acetylphenyl)-3-(3-methoxyphenyl)urea]	< 2000
COc1ccc(NC(=O)Nc2cccc(C#N)c2)cc1 [Compound 409, 1-(3-cyanophenyl)-3-(4-methoxyphenyl)urea]	< 2000
COc1ccc(NC(=O)Nc2ccc(C(C)=O)cc2)cc1 [Compound 410, 1-(4-acetylphenyl)-3-(4-methoxyphenyl)urea]	< 2000
CCOc1ccc(NC(=O)Nc2ccc(C#N)cc2)cc1 [Compound 411, 1-(4-cyanophenyl)-3-(4-ethoxyphenyl)urea]	< 2000

SMILES	IC50 [nM]
CCOc1ccc(NC(=O)Nc2cccc(C(C)=O)c2)cc1 [Compound 412, 1-(3-acetylphenyl)-3-(4-ethoxyphenyl)urea]	< 2000
CCOc1ccc(NC(=O)Nc2ccc(C(C)=O)cc2)cc1 [Compound 413, 1-(4-acetylphenyl)-3-(4-ethoxyphenyl)urea]	< 2000
COCc1ccc(NC(=O)Nc2cccc(C(C)=O)c2)cc1 [Compound 414, 1-(3-acetylphenyl)-3-[4-(methoxymethyl)phenyl]urea]	< 2000
COCc1ccc(NC(=O)Nc2ccc(C(C)=O)cc2)cc1 [Compound 415, 1-(4-acetylphenyl)-3-[4-(methoxymethyl)phenyl]urea]	< 2000
CCCOc1ccc(NC(=O)Nc2cccc(C(C)=O)c2)cc1 [Compound 416, 1-(3-acetylphenyl)-3-(4-propoxyphenyl)urea]	< 2000
CCCOc1ccc(NC(=O)Nc2ccc(C(C)=O)cc2)cc1 [Compound 417, 1-(4-acetylphenyl)-3-(4-propoxyphenyl)urea]	< 2000
CC(C)Oc1cccc(NC(=O)Nc2cccc(C#N)c2)c1 [Compound 418, 1-(3-cyanophenyl)-3-(3-isopropoxyphenyl)urea]	< 2000
CC(=O)c1cccc(NC(=O)Nc2cccc(OC(C)C)c2)c1 [Compound 419, 1-(3-acetylphenyl)-3-(3-isopropoxyphenyl)urea]	< 2000
CC(=O)c1ccc(NC(=O)Nc2cccc(OC(C)C)c2)cc1 [Compound 420, 1-(4-acetylphenyl)-3-(3-isopropoxyphenyl)urea]	< 2000
CC(C)Oc1ccc(NC(=O)Nc2ccc(C#N)cc2)cc1 [Compound 421, 1-(4-cyanophenyl)-3-(4-isopropoxyphenyl)urea]	< 2000
CC(C)Oc1ccc(NC(=O)Nc2cccc(C#N)c2)cc1 [Compound 422, 1-(3-cyanophenyl)-3-(4-isopropoxyphenyl)urea]	< 2000
CC(=O)c1cccc(NC(=O)Nc2ccc(OC(C)C)cc2)c1 [Compound 423, 1-(3-acetylphenyl)-3-(4-isopropoxyphenyl)urea]	< 2000
CC(=O)c1ccc(NC(=O)Nc2ccc(OC(C)C)cc2)cc1 [Compound 424, 1-(4-acetylphenyl)-3-(4-isopropoxyphenyl)urea]	< 2000
CC(=O)c1cccc(NC(=O)Nc2cccc(OC(F)F)c2)c1 [Compound 425, 1-(3-acetylphenyl)-3-[3-(difluoromethoxy)phenyl]urea]	< 2000
CC(=O)c1ccc(NC(=O)Nc2cccc(OC(F)F)c2)cc1 [Compound 426, 1-(4-acetylphenyl)-3-[3-(difluoromethoxy)phenyl]urea]	< 2000
CC(=O)c1ccc(NC(=O)Nc2ccc(OC(F)F)cc2)cc1 [Compound 427, 1-(4-acetylphenyl)-3-[4-(difluoromethoxy)phenyl]urea]	< 2000
Cc1ccc(NC(=O)Nc2ccc(F)cc2)cc1C [Compound 428, 1-(3,4-dimethylphenyl)-3-(4-fluorophenyl)urea]	< 2000
Cc1ccc(NC(=O)Nc2cccc(F)c2)cc1F [Compound 429, 1-(3-fluoro-4-methylphenyl)-3-(3-fluorophenyl)urea]	< 2000
